From the CheMixHub viscosity set
± gives the uncertainty stated by the source.

Assay: xn = mol fraction of the nth substance listed

CN1CCC[C@H]1c1cccnc1 + CCCC(=O)O
viscosity [mPa·s], 101 kPa
Conditions	298.15 K	323.15 K
x1 = 0.099	11.74 ± 0.16	5.188 ± 0.058
x1 = 0.1992	48.69 ± 0.48	14.24 ± 0.23
x1 = 0.2139	52.39 ± 0.44	14.9 ± 0.22
x1 = 0.2277	53.82 ± 0.46	15.04 ± 0.23
x1 = 0.234	53.97 ± 0.46	15.13 ± 0.24
x1 = 0.2478	54.2 ± 0.47	14.99 ± 0.23
x1 = 0.2707	53.87 ± 0.47	14.89 ± 0.23
x1 = 0.2993	50.77 ± 0.44	13.9 ± 0.22
x1 = 0.3872	29.61 ± 0.33	9.46 ± 0.13
x1 = 0.5011	17.55 ± 0.18	–
x1 = 0.6081	11.63 ± 0.13	4.462 ± 0.061
x1 = 0.697	8.404 ± 0.098	3.766 ± 0.049
x1 = 0.804	6.265 ± 0.076	2.983 ± 0.039
x1 = 0.8928	5.192 ± 0.064	2.579 ± 0.034

CCOC(=O)CCC(=O)OCC + CCCCO
100 kPa
Conditions	viscosity [mPa·s]
303.15 K, x1 = 0.1	1.845 ± 0.016
308.15 K, x1 = 0.6998	1.635 ± 0.016
313.15 K, x1 = 0.3	1.355 ± 0.013
318.15 K, x1 = 0.2001	1.245 ± 0.012
323.15 K, x1 = 0.8997	1.435 ± 0.014

CC(C)C#N + Cc1ccc(C)cc1
viscosity [mPa·s], 101 kPa
Conditions	x2 = 0.1003	x2 = 0.2009	x2 = 0.3014	x2 = 0.4041	x2 = 0.4978	x2 = 0.6013	x2 = 0.7001	x2 = 0.8003	x2 = 0.8998
303.15 K	0.474 ± 0.008	0.482 ± 0.008	0.484 ± 0.008	0.498 ± 0.008	0.505 ± 0.008	0.519 ± 0.008	0.531 ± 0.008	0.55 ± 0.008	0.558 ± 0.008
308.15 K	0.444 ± 0.008	0.453 ± 0.008	0.453 ± 0.008	0.461 ± 0.008	0.473 ± 0.008	0.485 ± 0.008	0.495 ± 0.008	0.507 ± 0.008	0.519 ± 0.008

OCCCO + C[N+](C)(C)CCO.[Cl-]
viscosity [mPa·s], 101.3 kPa
Conditions	293.15 K	298.15 K	298.2 K	303.15 K	308.15 K	308.2 K	313.15 K	318.15 K	318.2 K	323.15 K
x1 = 0.7509	69.74 ± 3	55.76 ± 2.3	–	45.4 ± 1.9	37.43 ± 1.6	–	31.35 ± 1.3	26.52 ± 1.1	–	22.62 ± 0.95
x1 = 0.8001	61.31 ± 2.6	49.49 ± 2.1	–	40.7 ± 1.7	33.88 ± 1.4	–	27.31 ± 1.1	23.03 ± 0.97	–	19.63 ± 0.82
x1 = 0.8328	57.14 ± 2.4	46.14 ± 1.9	–	37.62 ± 1.6	30.92 ± 1.3	–	25.67 ± 1.1	21.53 ± 0.9	–	18.26 ± 0.76
x1 = 0.8567	53.95 ± 2.2	42.83 ± 1.8	–	34.73 ± 1.5	28.58 ± 1.2	–	24.01 ± 1	20.38 ± 0.85	–	17.26 ± 0.72
x2 = 0.1667	–	–	49.5 ± 2.1	–	–	36.9 ± 1.5	–	–	27.6 ± 1.1	–
x2 = 0.2	–	–	–	34.45 ± 0.97	28.87 ± 0.75	–	24.21 ± 0.7	20.52 ± 0.57	–	17.57 ± 0.5
x2 = 0.25	–	–	–	40.05 ± 1.2	33.17 ± 0.93	–	27.84 ± 0.77	23.62 ± 0.59	–	20.25 ± 0.57

CCCCCCCCCCC + CCCCCCCC
298.15 K, 101.33 kPa
Conditions	viscosity [mPa·s]
x2 = 0.1011	1.012 ± 0.013
x2 = 0.2077	0.9375 ± 0.012
x2 = 0.3112	0.8621 ± 0.011
x2 = 0.406	0.8112 ± 0.01
x2 = 0.5073	0.7521 ± 0.0099
x2 = 0.6089	0.7019 ± 0.0093
x2 = 0.7063	0.645 ± 0.0087
x2 = 0.8047	0.6014 ± 0.0082
x2 = 0.9039	0.5503 ± 0.0077

NC=O + OCC(O)CO
viscosity [mPa·s], 101 kPa
Conditions	x2 = 0.057	x2 = 0.12	x2 = 0.189	x2 = 0.266	x2 = 0.352	x2 = 0.449	x2 = 0.559	x2 = 0.685	x2 = 0.83
303.15 K	4.08 ± 0.04	5.13 ± 0.04	7.21 ± 0.06	11.1 ± 0.1	15.9 ± 0.1	27.5 ± 0.2	53.1 ± 0.3	106.8 ± 1.9	214.3 ± 6.9
318.15 K	2.98 ± 0.03	3.52 ± 0.03	4.65 ± 0.04	6.53 ± 0.05	8.88 ± 0.07	14.1 ± 0.1	23.9 ± 0.2	42.7 ± 0.3	80.6 ± 1

CCCCCCCCCCC + CCCCCC
viscosity [mPa·s]
Conditions	293.15 K	298.15 K	303.15 K	308.15 K	313.15 K	318.15 K	323.15 K
100 kPa, x2 = 0.1021	1.036 ± 0.013	0.958 ± 0.012	0.89 ± 0.011	0.828 ± 0.01	0.773 ± 0.01	0.724 ± 0.009	0.68 ± 0.009
100 kPa, x2 = 0.1994	0.934 ± 0.012	0.867 ± 0.011	0.804 ± 0.01	0.751 ± 0.009	0.704 ± 0.009	0.662 ± 0.008	0.623 ± 0.008
100 kPa, x2 = 0.306	0.819 ± 0.01	0.763 ± 0.01	0.712 ± 0.009	0.668 ± 0.008	0.627 ± 0.008	0.591 ± 0.007	0.558 ± 0.007
100 kPa, x2 = 0.4014	0.731 ± 0.009	0.684 ± 0.009	0.64 ± 0.008	0.602 ± 0.008	0.567 ± 0.007	0.535 ± 0.007	0.507 ± 0.006
100 kPa, x2 = 0.4991	0.646 ± 0.008	0.606 ± 0.008	0.57 ± 0.007	0.538 ± 0.007	0.508 ± 0.006	0.481 ± 0.006	0.456 ± 0.006
100 kPa, x2 = 0.601	0.563 ± 0.007	0.53 ± 0.01	0.5 ± 0.006	0.473 ± 0.006	0.449 ± 0.006	0.426 ± 0.005	0.406 ± 0.005
100 kPa, x2 = 0.7028	0.489 ± 0.006	0.462 ± 0.006	0.438 ± 0.006	0.415 ± 0.005	0.395 ± 0.005	0.377 ± 0.005	0.36 ± 0.005
100 kPa, x2 = 0.7989	0.424 ± 0.005	0.402 ± 0.005	0.383 ± 0.005	0.365 ± 0.005	0.348 ± 0.004	0.333 ± 0.004	0.319 ± 0.004
100 kPa, x2 = 0.9	0.364 ± 0.005	0.347 ± 0.004	0.331 ± 0.004	0.315 ± 0.004	0.302 ± 0.004	0.292 ± 0.004	0.28 ± 0.004
101.33 kPa, x2 = 0.1036	–	0.963 ± 0.024	–	–	–	–	–
101.33 kPa, x2 = 0.1988	–	0.876 ± 0.022	–	–	–	–	–
101.33 kPa, x2 = 0.2999	–	0.7746 ± 0.02	–	–	–	–	–
101.33 kPa, x2 = 0.4051	–	0.6933 ± 0.018	–	–	–	–	–
101.33 kPa, x2 = 0.5076	–	0.609 ± 0.016	–	–	–	–	–
101.33 kPa, x2 = 0.606	–	0.5391 ± 0.015	–	–	–	–	–
101.33 kPa, x2 = 0.7068	–	0.4643 ± 0.013	–	–	–	–	–
101.33 kPa, x2 = 0.8048	–	0.4044 ± 0.012	–	–	–	–	–
101.33 kPa, x2 = 0.9022	–	0.3552 ± 0.011	–	–	–	–	–

OCCCl + c1ccccc1
303.15 K, 101.33 kPa
Conditions	viscosity [mPa·s]
x2 = 0.3365	1.315 ± 0.27
x2 = 0.4832	1.008 ± 0.2
x2 = 0.6611	0.771 ± 0.15
x2 = 0.849	0.613 ± 0.12

CC(C)C#N + Clc1ccccc1Cl
viscosity [mPa·s], 101 kPa
Conditions	x2 = 0.1007	x2 = 0.2025	x2 = 0.2999	x2 = 0.4004	x2 = 0.4997	x2 = 0.599	x2 = 0.6994	x2 = 0.7997	x2 = 0.8989
303.15 K	0.526 ± 0.009	0.594 ± 0.009	0.659 ± 0.01	0.73 ± 0.01	0.793 ± 0.011	0.874 ± 0.012	0.947 ± 0.012	1.03 ± 0.013	1.118 ± 0.014
308.15 K	0.489 ± 0.008	0.551 ± 0.009	0.608 ± 0.009	0.667 ± 0.01	0.732 ± 0.01	0.798 ± 0.011	0.87 ± 0.012	0.945 ± 0.012	1.02 ± 0.013

CCCCCCCCCCC + CCCCCCCCCCCC
298.15 K, 101.33 kPa
Conditions	viscosity [mPa·s]
x1 = 0.106	1.314 ± 0.016
x1 = 0.2057	1.297 ± 0.016
x1 = 0.3093	1.253 ± 0.015
x1 = 0.4136	1.236 ± 0.015
x1 = 0.5553	1.196 ± 0.015
x1 = 0.6095	1.175 ± 0.015
x1 = 0.7174	1.143 ± 0.014
x1 = 0.8145	1.126 ± 0.014
x1 = 0.9084	1.11 ± 0.014

OCCCl + CCOC(C)=O
viscosity [mPa·s], 101.33 kPa
Conditions	x1 = 0.1033	x1 = 0.2006	x1 = 0.3231	x1 = 0.4048	x1 = 0.5015	x1 = 0.6007	x1 = 0.7022	x1 = 0.8	x1 = 0.9
298.15 K	0.485 ± 0.004	0.542 ± 0.004	0.643 ± 0.005	0.729 ± 0.005	0.864 ± 0.006	1.065 ± 0.008	1.326 ± 0.01	1.689 ± 0.013	2.242 ± 0.017
303.15 K	0.454 ± 0.004	0.51 ± 0.004	0.601 ± 0.005	0.679 ± 0.005	0.8 ± 0.006	0.967 ± 0.007	1.2 ± 0.009	1.517 ± 0.011	1.98 ± 0.014
308.15 K	0.43 ± 0.003	0.482 ± 0.004	0.565 ± 0.004	0.635 ± 0.005	0.746 ± 0.005	0.894 ± 0.006	1.098 ± 0.008	1.369 ± 0.009	1.776 ± 0.012
